Where “and” joins values, the source holds several entries; their conditions need not be identical. Identical values can stand only once. Toxic doses and inconclusive results are not listed. Rule for the calls: active = survival T/C of 150% or more; inactive = T/C below 125% in these data.
Test system: BDF1 mice, P388 leukemia ip, median survival T/C
Assay: NCI In Vivo Anticancer Drug Screen. Data for tumor model P388 Leukemia (intraperitoneal) in B6D2F1 (BDF1) mice
Conditions: endpoint: median survival time, higher = longer survival
Summary of the method: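 Read-out is survival of treated animals expressed relative to the vehicle group, as a T/C ratio.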

[1] = dose: 100.0 mg/kg/injection, schedule: Q01DX009 (ip), vehicle: water
[2] = dose: 100.0 mg/kg/injection, schedule: Q04DX003 (ip), vehicle: other
[3] = dose: 200.0 mg/kg/injection, schedule: Q04DX003 (ip), vehicle: other
[4] = dose: 400.0 mg/kg/injection, schedule: Q04DX003 (ip), vehicle: other
[5] = dose: 25.0 mg/kg/injection, schedule: Q01DX009 (ip), vehicle: saline with Tween-80
[6] = dose: 50.0 mg/kg/injection, schedule: Q01DX009 (ip), vehicle: saline with Tween-80
[7] = dose: 100.0 mg/kg/injection, schedule: Q04DX003 (ip), vehicle: Klucel (hydroxypropylcellulose) (HPC)
[8] = dose: 200.0 mg/kg/injection, schedule: Q01DX009 (ip), vehicle: Klucel (hydroxypropylcellulose) (HPC)
[9] = dose: 200.0 mg/kg/injection, schedule: Q04DX003 (ip), vehicle: Klucel (hydroxypropylcellulose) (HPC)
[10] = dose: 400.0 mg/kg/injection, schedule: Q04DX003 (ip), vehicle: Klucel (hydroxypropylcellulose) (HPC)
[11] = dose: 25.0 mg/kg/injection, schedule: Q04DX003 (ip), vehicle: saline with Tween-80
[12] = dose: 50.0 mg/kg/injection, schedule: Q04DX003 (ip), vehicle: saline with Tween-80
[13] = dose: 100.0 mg/kg/injection, schedule: Q04DX003 (ip), vehicle: saline with Tween-80

Measured: T/C

CN(C)c1nc(N(C)C)nc(N(C)C)n1
inactive: dose: 18.8 mg/kg/injection, schedule: Q01DX010 (ip), vehicle: saline 100 % of control | dose: 20.0 mg/kg/injection, schedule: Q01DX009 (ip), vehicle: Klucel (hydroxypropylcellulose) (HPC) 95 % of control | dose: 20.0 mg/kg/injection, schedule: Q01DX009 (ip), vehicle: saline with Tween-80 104 % of control | dose: 25.0 mg/kg/injection, schedule: Q01DX001 (ip), vehicle: Klucel (hydroxypropylcellulose) (HPC) 100 % of control | dose: 25.0 mg/kg/injection, schedule: Q04DX002 (ip), vehicle: Klucel (hydroxypropylcellulose) (HPC) 101 % of control and 107 % of control | dose: 25.0 mg/kg/injection, schedule: Q04DX003 (ip), vehicle: Klucel (hydroxypropylcellulose) (HPC) 96 % of control and 100 % of control | dose: 37.5 mg/kg/injection, schedule: Q01DX010 (ip), vehicle: saline 100 % of control and 110 % of control | dose: 40.0 mg/kg/injection, schedule: Q01DX009 (ip), vehicle: Klucel (hydroxypropylcellulose) (HPC) 100 % of control | dose: 40.0 mg/kg/injection, schedule: Q01DX009 (ip), vehicle: saline with Tween-80 113 % of control | dose: 59.0 mg/kg/injection, schedule: Q01DX009 (ip), vehicle: saline with Tween-80 107 % of control | dose: 75.0 mg/kg/injection, schedule: Q01DX010 (ip), vehicle: saline 100 % of control and 115 % of control | dose: 80.0 mg/kg/injection, schedule: Q01DX009 (ip), vehicle: Klucel (hydroxypropylcellulose) (HPC) 90 % of control | dose: 80.0 mg/kg/injection, schedule: Q01DX009 (ip), vehicle: saline with Tween-80 99 % of control | dose: 89.0 mg/kg/injection, schedule: Q01DX009 (ip), vehicle: saline with Tween-80 107 % of control | dose: 133.0 mg/kg/injection, schedule: Q01DX009 (ip), vehicle: saline with Tween-80 115 % of control | dose: 150.0 mg/kg/injection, schedule: Q01DX010 (ip), vehicle: saline 100 % of control and 104 % of control | dose: 160.0 mg/kg/injection, schedule: Q01DX009 (ip), vehicle: Klucel (hydroxypropylcellulose) (HPC) 104 % of control | dose: 200.0 mg/kg/injection, schedule: Q01DX009 (ip), vehicle: saline with Tween-80 107 % of control

c1ccc(Cn2ccnc2)cc1
inactive: dose: 3.12 mg/kg/injection, schedule: Q01DX009 (ip), vehicle: water 87 % of control | dose: 6.25 mg/kg/injection, schedule: Q01DX009 (ip), vehicle: water 92 % of control | dose: 12.5 mg/kg/injection, schedule: Q01DX009 (ip), vehicle: water 87 % of control | dose: 25.0 mg/kg/injection, schedule: Q01DX009 (ip), vehicle: water 99 % of control | dose: 50.0 mg/kg/injection, schedule: Q01DX009 (ip), vehicle: water 100 % of control | [1] 86 % of control

S=C(Nc1ccccc1)NC1CCCCCC1
inactive: dose: 75.0 mg/kg/injection, schedule: Q04DX003 (ip), vehicle: Klucel (hydroxypropylcellulose) (HPC) 90 % of control | dose: 150.0 mg/kg/injection, schedule: Q04DX003 (ip), vehicle: Klucel (hydroxypropylcellulose) (HPC) 100 % of control | dose: 300.0 mg/kg/injection, schedule: Q04DX003 (ip), vehicle: Klucel (hydroxypropylcellulose) (HPC) 110 % of control

CCCC(C(O)c1ccc(OC)cc1)C(O)(C(F)(F)F)C(F)(F)F (centres undefined)
inactive: [2] 90 % of control | [3] 105 % of control | [4] 105 % of control

O=C(NC(=O)c1c(F)cccc1F)Nc1ccc(Br)cn1
inactive: [5] 99 % of control | [6] 92 % of control | dose: 100.0 mg/kg/injection, schedule: Q01DX009 (ip), vehicle: saline with Tween-80 92 % of control

CCCCN(C)/N=N/c1[nH]ncc1C(=O)OCC
inactive: [2] 116 % of control | [3] 108 % of control | [4] 100 % of control

C[C@]12CC[C@H]3C(=CCc4cc(O)ccc43)[C@@H]1CCC2=O
inactive: [7] 95 % of control | [8] 91 % of control | [9] 90 % of control | [10] 95 % of control

NNc1ncnc2c(C3OC(CO)C(O)C3O)[nH]nc12 (centres undefined)
inactive: dose: 20.0 mg/kg/injection, schedule: Q01DX009 (ip), vehicle: water 100 % of control | dose: 30.0 mg/kg/injection, schedule: Q01DX009 (ip), vehicle: water 105 % of control | dose: 45.0 mg/kg/injection, schedule: Q01DX009 (ip), vehicle: water 110 % of control | dose: 67.0 mg/kg/injection, schedule: Q01DX009 (ip), vehicle: water 95 % of control | [1] 100 % of control

Cc1ccc(S(=O)(=O)OCC2C3C=CC(C3)C2COS(=O)(=O)c2ccc(C)cc2)cc1 (centres undefined)
inactive: dose: 100.0 mg/kg/injection, schedule: Q01DX009 (ip), vehicle: Klucel (hydroxypropylcellulose) (HPC) 86 % of control | [7] 86 % of control | [8] 104 % of control | [9] 90 % of control | dose: 400.0 mg/kg/injection, schedule: Q01DX009 (ip), vehicle: Klucel (hydroxypropylcellulose) (HPC) 100 % of control | [10] 90 % of control

CC(=O)Nc1ccc2c(c1)C[N+](C)(C1CCCCC1)CO2 (centres undefined)
inactive: [5] 109 % of control | [11] 95 % of control | [6] 109 % of control | [12] 91 % of control | [13] 95 % of control

c1ccc2c(c1)Sc1ccccc1N2Cc1cnc[nH]1
inactive: [11] 100 % of control | [12] 104 % of control | [13] 100 % of control | dose: 200.0 mg/kg/injection, schedule: Q04DX003 (ip), vehicle: saline with Tween-80 109 % of control

CC(=O)c1cnn(-c2ccccc2)c1C
inactive: dose: 100.0 mg/kg/injection, schedule: Q01DX001 (ip), vehicle: Klucel (hydroxypropylcellulose) (HPC) 104 % of control | dose: 100.0 mg/kg/injection, schedule: Q01DX009 (ip), vehicle: other 105 % of control | [7] 104 % of control | dose: 200.0 mg/kg/injection, schedule: Q01DX001 (ip), vehicle: Klucel (hydroxypropylcellulose) (HPC) 109 % of control | dose: 200.0 mg/kg/injection, schedule: Q01DX009 (ip), vehicle: other 100 % of control | [9] 86 % of control | dose: 400.0 mg/kg/injection, schedule: Q01DX001 (ip), vehicle: Klucel (hydroxypropylcellulose) (HPC) 109 % of control | dose: 400.0 mg/kg/injection, schedule: Q01DX009 (ip), vehicle: other 100 % of control | [10] 90 % of control

From PubChem BioAssay AID328 (DTP/NCI, 2004)
